According to patent US20210144990A1, “IMPROVED ULTRA-FAST COOLING SYSTEM AND METHODS OF USE” (priority 2018, published 2021):

Tested on: corneal endothelial cells
Assay: Post-thaw quality of pig corneal endothelium after ultra-fast cooling, with or without DMSO in DMEM
Format: cell-based
Settings: pig corneal pieces cooled to -196 degrees C by liquid nitrogen blade jet, thawed under 37 degrees C water jet
Source text: Small samples excised from pig corneas were cooled from room temperature (ambient) to −196 degrees C. using an ultra-fast cooling system of the present invention that contains a single liquid nitrogen blade jet and two gas nitrogen blade jets. Pig corneas were processed and cut into approx. 0.5 cm×0.5 cm×0.5 cm pieces, and each piece maintains a full layer of endothelium, i.e., a single layer of corneal endothelial cells of approximately 10 microns in size, on one surface. The tissues are first placed in standard holding media, Dulbecco's Modified Eagle Media (DMEM), at 4 degrees C. A sample holder was made with a holding cavity of 0.5 cm in depth and with a 20 microns thick sheet of stainless steel as its cover sheet. […] The corneal endothelium of each tissue faced to the cover sheet and directly contacted its inner surface, to achieve maximum cooling rate possibly provided by the liquid nitrogen jet for the endothelium and prevent exposure of the cells to liquid nitrogen flows. […] The post-thaw quality of the corneal endothelia was evaluated by quantification of endothelial cell number based on differential interference contrast light microscopy. The cell health was assessed by using cell circularity as a surrogate marker using differential interference contrast light microscopy. […]

C[S+](C)[O-] [DMSO, dimethyl sulfoxide]
post-thaw endothelial cell viability (cell count vs fresh tissue, FIG. 19D) (10% DMSO in DMEM): comparable to readings of the fresh corneas | post-thaw endothelial cell viability (cell count vs fresh tissue, FIG. 19D) (20% DMSO in DMEM): impacted the cell viability due to toxicity
